Here are results for nine compounds from US10414732B2, “Polymorphic compounds and uses thereof” (priority 2017, dated 2019).

Molecules are shown by their SMILES. ≈ marks a conversion by molar mass, not a printed value. Where two headings read alike, the source gives them in different places.

What all share (format): physicochemical
The nature of data set [1]: Aqueous solubility determination via HPLC calibration curve. The method, then: The solubility determination was made as follows. Each salt suspension was made by adding 50-100 mg of material into a minimum amount of water (0.1-0.2 mL to start). Based on solubility, additional material was added to obtain a salt suspension. The suspension was then filtered through a 0.25 μm filter and the filtrate was further diluted with water and the salt solution was analysed by HPLC. The concentration of the salt solution injected was calculated with the linear equation y=mx+c derived from the calibration curves, with Y referring to the HPLC response obtained for the salt solution injected.

Data set [2] is described as follows: Characterization of the resulting solid form (hygroscopicity).
Data set [3] can be described thus: Competitive slurries (cross-seeding) of free base Forms A and B, solids analysed by XRPD. Conditions: for XRPD form after competitive slurry: Forms A and B equal amounts, 72 h. How it is done: This set of experiments was performed using various solvents and solvent combinations. Cross-seeding experiments were performed over a range of temperatures to help define the relationship between Forms A and B.
Procedure: Twenty-one cross-seeding experiments were performed by adding equal amounts of Forms A and B (weight/weight, total of 25 mg). The mixture was slurried in the given solvent/system (ca. 5 vol. 125 μl) at room temperature, then matured at a specific temperature (5° C., 25° C. or 50° C.) for 72 h. The solids were filtered, air dried and analysed by XRPD. After two days, samples 3 and 15 were completely dry and additional portions of their corresponding solvents were added, (250 μl was added to sample 3 and 248.6 μl was added to sample 15). Solids obtained were characterised by XRPD.

[4] abbreviates: water, thermodynamic from solid, aqueous (water), filtered suspension, HPLC, read-out: Solubility.
The mark [5] stands for this setting: aqueous (water), filtered suspension, HPLC.

Usually solubility stands for the dissolved amount per volume that the medium holds. For the compound `CC(C)(O)c1nc2ccc(Cl)cc2cc1N.CS(=O)(=O)O` [Compound 1], in data set [1] (setting [4]), the solubility is more than 1500 mg/mL. For the same compound, the “Aqueous solubility compared with the other compounds” value in data set [1] (water, comparison in words) was “highest solubility”. Further, the Hygroscopicity entry in data set [2] (Form B) was “slightly hygroscopic”.

Consider `CC(C)(O)c1nc2ccc(Cl)cc2cc1N.O=S(=O)(O)c1ccccc1` [Compound 2], for which the Hygroscopicity result in data set [2] (Form A) is “slightly hygroscopic”.

Regarding `CC(C)(O)c1nc2ccc(Cl)cc2cc1N.O=S(=O)(O)O` [Compound 3], in data set [1] (thermodynamic from solid, aqueous (water), filtered suspension, HPLC, read-out: Solubility), the solubility stood at 421 mg/mL. For the same compound, the Hygroscopicity entry in data set [2] (Form A) was “slightly hygroscopic”.

As to `CC(C)(O)c1nc2ccc(Cl)cc2cc1N.Cc1ccc(S(=O)(=O)O)cc1` [Compound 4], the solubility in data set [1] (setting [4]) worked out at 11 mg/mL.

In data set [1] (setting [5]), `CC(C)(O)c1nc2ccc(Cl)cc2cc1N` [Compound 5] came in with a solubility of 73 mg/mL (≈ 308 mM). For the same compound, the Hygroscopicity entry in data set [2] (Form A) is “slightly hygroscopic”.

Compound `CC(C)(O)c1nc2ccc(Cl)cc2cc1N.O=C(O)C(=O)O` [Compound 6] returned a solubility in data set [1] (water, thermodynamic from solid, Solubility) of 15.6 mg/mL.

Turning to `CC(C)(O)c1nc2ccc(Cl)cc2cc1N.O=P(O)(O)O` [Compound 7], in data set [1] (setting [4]), the solubility is more than 500 mg/mL. For the same compound, in data set [2] (Form A), the Hygroscopicity entry is “slightly hygroscopic”.

In turn, `CC(C)(O)c1nc2ccc(Cl)cc2cc1N` [Compound 8] registered a solubility in data set [1] (setting [5]) of 35 mg/mL (≈ 148 mM).

For `CC(C)(O)c1nc2ccc(Cl)cc2cc1N` [Compound A], the solubility in data set [1] (setting [5]) was less than 0.1 mg/mL. Moreover, the values for the Hygroscopicity result in data set [2] (Form A) and in data set [2] (Form B) were “non-hygroscopic” and “slightly hygroscopic”, respectively. The “Transition temperature between Form A and Form B” value in data set [3] was “below 50 °C”. Moreover, the “XRPD form after competitive slurry” value in data set [3] (Acetone:H2O (10%), 5° C.) is “Form B”; in data set [3] (Acetone:H2O (10%), 25° C.), “Form B”; in data set [3] (Acetone:H2O (10%), 50° C.) it was “Forms A & B”; in data set [3] (Cyclohexane, 5° C.) it was “Forms A & B”; in data set [3] (Cyclohexane, 25° C.), “Form B”; in data set [3] (Cyclohexane, 50° C.) it was “Form B”. Also, the “XRPD form after competitive slurry” value is given as “Form B” in data set [3] (EtOAc:Heptane, 5° C.); “Form B” in data set [3] (EtOAc:Heptane, 25° C.); “Form B” in data set [3] (EtOAc:Heptane, 50° C.); “Form B” in data set [3] (Heptane, 5° C.); “Form B” in data set [3] (Heptane, 25° C.); “Form B” in data set [3] (Heptane, 50° C., additional solvent added). The “XRPD form after competitive slurry” value was “Form B” in data set [3] (Toluene, 5° C.); “Form B” in data set [3] (Toluene, 25° C.); “Form A” in data set [3] (Toluene, 50° C.); “Form B” in data set [3] (Toluene:Cyclohexane, 5° C.); “Form B” in data set [3] (Toluene:Cyclohexane, 25° C.); “Form B” in data set [3] (Toluene:Cyclohexane, 50° C.). The “XRPD form after competitive slurry” value is reported as “Form B” in data set [3] (Toluene:Heptane, 5° C.); “Form B” in data set [3] (Toluene:Heptane, 25° C.); “Form B” in data set [3] (Toluene:Heptane, 50° C., additional solvent added). In data set [3] (two anhydrous forms (Form A & Form B), under the investigated conditions), the “Most stable form in competitive slurries” value is “Form B”.
